# “Also recorded” adds a separate entry of the source.
# Legend:
# UMR106.01 cells = test: cAMP production (adenylate cyclase response) in UMR106.01 cells; assay type: cell-based; conditions: for cAMP formation by the peptide alone: FIG. 5A/5B; for maximum amplitude of cAMP response: compared with other peptides at highest concentrations
# Protocol: The PTH-like biological activity of the peptides was assayed by measuring cyclic adenosine 3′,5′-monophosphate (cAMP) production in UMR106.01 cells (Forrest et al, Calcif Tissue Int, 37:52-56 (1985)), grown to 90% confluence. Prior to assaying, the cells were washed once with phosphate buffered saline (PBS) and equilibrated for 20 mins in medium containing 0.1% BSA and lmM-isobutylmethylxanthine (Sigma, St Louis, USA). Cells were subsequently stimulated at 37° C for 10 mins in the absence and presence of increasing hormone concentrations. The cells were then washed once with PBS and cAMP was extracted with 1.5 ml acidified ethanol. Samples were evaporated to dryness, reconstituted in assay buffer and assayed by a specific cAMP radioimmunoassay (Houssami et al, Endocrine J. 2:127-134 (1994)).
# PTH-1R = PTH-1R (UniProt P25961); test: cell-based or functional assay
# UniProt P25961, sequence (P25961 27-591 limits assumed): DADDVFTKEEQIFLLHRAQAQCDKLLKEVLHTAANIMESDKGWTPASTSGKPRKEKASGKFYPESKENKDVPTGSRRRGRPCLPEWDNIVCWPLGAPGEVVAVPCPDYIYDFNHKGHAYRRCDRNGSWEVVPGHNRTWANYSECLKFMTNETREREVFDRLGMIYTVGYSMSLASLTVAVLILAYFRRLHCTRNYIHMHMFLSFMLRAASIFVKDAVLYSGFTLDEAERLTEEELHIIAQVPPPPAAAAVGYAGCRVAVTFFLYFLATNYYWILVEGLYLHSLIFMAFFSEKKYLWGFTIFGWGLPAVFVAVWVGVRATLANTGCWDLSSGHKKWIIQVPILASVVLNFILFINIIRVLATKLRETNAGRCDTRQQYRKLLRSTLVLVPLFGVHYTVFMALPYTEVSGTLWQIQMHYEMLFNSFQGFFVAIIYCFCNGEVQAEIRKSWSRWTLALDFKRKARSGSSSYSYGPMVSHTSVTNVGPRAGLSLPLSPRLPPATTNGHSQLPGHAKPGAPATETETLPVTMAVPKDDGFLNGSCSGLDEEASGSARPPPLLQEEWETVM
# [1] = test system: polyclonal antisera raised against human PTHrP(1-14), human PTHrP(1-141) and hPTH(1-34); test: Immunoblots (dot blots) with anti-human PTHrP and anti-human PTH antisera; assay type: binding, rabbit; conditions: 10, 25, 50 μg spotted, data not shown
# Source text: Seven antisera (R88, R1904, R1942, R87, R1348, R196, R212) were raised against human PTHrP(1-14) and one antiserum (R190) was raised against human PTHrP(1-141). The anti-PTH polyclonal antibody was raised against hPTH(1-34)(BioGenex, San Ramon, USA). The anti-human PTHrP antisera have been used successfully in immunohistochemistry and Western blotting with tissues taken from bony and cartilaginous fishes (Danks et al, Gen Comp Endocrinol, 92:201-212 (1993); Ingleton et al, Gen Comp Endocrinol 98:211-218 (1995)). The anti-PTH antiserum has been used in immunohistochemistry of human parathyroid material and Western blotting (Danks et al, J Pathol, 161:27-33 (1993)). 10, 25, 50 μg of Fugu PTH were spotted along side a positive control, (ie human PTHrP(I-34)), on nitrocellulose membrane (Schleicher & Schuell, Dassel, Germany). After an initial incubation period with Tris buffered saline, 0.2% Tween, 5% skim milk powder to block non specific binding sites, the nitrocellulose membrane was incubated with primary polyclonal antibody, followed by secondary antibody (anti-rabbit serum conjugated to horseradish peroxidase (Dako, Carpenteria, USA)) incubation. Three washes on a shaker table were done in between incubations. A BM chemiluminescence blotting system (Roche Applied Sciences, Mannheim, Germany) was used to detect specific dot blots.
# [2] = test system: bones of male Sprague-Dawley rats; test: Anabolic effect on bones of rats (histomorphometry of proximal tibiae); assay type: in vivo, rat; conditions: for histomorphometric markers of bone resorption: FIG. 11; for osteoblast number per unit osteoid surface: FIG. 10
# Protocol: The anabolic effect of Fugu PTH was assessed in the bones of 50-60 g male Sprague-Dawley rats (3-4 weeks old).
# Rats were subcutaneously administered a low or high dose (3 or 10 gg) of Fugu PTH(1-34) per 100 g body weight each day for 30 days. The synthetic PTH peptides were dissolved in 0.01M acetic acid and then daily injections were prepared in normal saline with 2% rat serum (from male Sprague-Dawley rats). The rats were weighed twice a week and the PTH dose adjusted for the increasing weight of each animal.
# There were 12 rats in each of the following treatment groups: control, human PTH (low or high dose) and Fugu PTH (low or high dose). Rats were euthanased using asphyxiation and tibiae were removed, leaving most of the muscle on the bone. The samples were placed into freshly prepared 4% paraformaldehyde. They were fixed for 24 hours and then transferred to 70% ethanol in preparation for histomorphometry.
# Fixed tibiae were X-rayed and embedded in methylmethacrylate resin as follows: Tibiae were cleaned of muscle, then bisected transversely and trimmed approximately 2 mm on each side using a water cooled slow speed bench saw to provide a flat surface for embedding, parallel to the sagittal midline. Fixed tibiae were dehydrated in acetone by hourly changes of 70% acetone, 90% acetone and 100% acetone (×2). After dehydration, samples were infiltrated with methylmethacrylate resin (85% methylmethacrylate, 15% dibutylphthalate, 0.05% benzoyl peroxide) twice for at least 3 days (minimum total of 6 days). For at least one day of the infiltration procedure, samples were infiltrated under vacuum at room temperature; all other steps were carried out at 4° C. After infiltration, tibiae were embedded in glass scintillation vials on a polymerised methylmethacrylate base in methylmethacrylate resin (85% methylmethacrylate, 15% dibuylphthalate, 3% benzoyl peroxide) in a waterbath in a 37° C. incubator over 48 hours. After polymerisation, a third layer of methacrylate was included (same components as above plus acrylic resin beads) and allowed to polymerise over another 48 hours. After samples were fully polymerised, they were cooled at −20° C. to allow polymer contraction, before the embedded tibiae were released from the glass vials by smashing them with a hammer. Polymerised tibiae were then ground on an electric grinder/ polisher to expose the bone surface, and provide a squared block to sit securely in a microtome. 5 μm sections were cut on a Leica 2165 microtome, spread with 95% ethanol and adhered to glass microscope slides by clamping overnight at 37° C. separated by pieces of bagging plastic. Fully adhered sections were deplasticised in cellosolve for 2×25 minutes, dehydrated in graded ethanols and stained with toluidine blue for standard histomorphometry. Von Kossa staining was carried out to provide composite images.
# Histomorphometry was carried out according to standard procedures using the Osteomeasure Image analysis system (Osteometrics, Decatur, Ga.) in the secondary spongiosa, starting 3 mm below the growth plate in a region 3 mm wide by 1.1 mm high. Data was analysed by one-way ANOVA followed by Tukey's post-hoc test to locate significant differences.
# PTH-3R = conditions: zebrafish PTH-3R, Rubin et al; cited from earlier work
# [3] = 10 microgram/100 gram body weight/day, 30 days, vs untreated control
# [4] = high dose 10 microgram/100 gram body weight/day
substance,measurement,setting,value
"Fugu PTH(1-32): synthetic fragment, amino acids 1-32 of Fugu PTH (TVSEVQLMHNLGEHKQVQERREWLQRRLHGIH)",cAMP formation by the peptide alone,UMR106.01 cells,stimulated cAMP formation
same,maximum amplitude of cAMP response,UMR106.01 cells,higher amplitude of maximum cAMP response than Fugu PTHrP(1-34)
Fugu PTHrP(1-34) (peptide),"ID50 of adenylate cyclase response (FIG. 5B), UMR106.01 cells",PTH-1R,1.5 nM
same,ID50 of cAMP formation in UMR106.01 cells,PTH-1R,1.4 nM
TVSEVQLMHNLGEHKQVQERREWLQRRLHGIHPIGLNNDDEPGWGRKGIASRELPNLRDLTPEEIQNALNVLEELLKSQE [Fugu PTH(1-34)],potency in cAMP assay relative to other peptides,UMR106.01 cells,"less potent than human PTH(1-34), human PTHrP(1-34) and Fugu PTHrP(1-34)"
same,adenylate cyclase activity on co-incubation with Fugu PTHrP(1-34),"UMR106.01 cells; 100 nM Fugu PTH(1-34) with maximal dose 10 nM Fugu PTHrP(1-34), data not shown",no further increase in adenylate cyclase activity was observed
same,cAMP formation by the peptide alone,UMR106.01 cells,stimulated cAMP formation
same,potency relative to human PTH or PTHrP,UMR106.01 cells; adenylate cyclase activation on a mammalian target cell,about one-fifth to one-tenth
same,maximum amplitude of cAMP response,UMR106.01 cells,"higher amplitude of maximum cAMP response than Fugu PTHrP(1-34); also recorded: significantly greater than that achieved with the highest concentrations of human PTH, human PTHrP or Fugu PTHrP"
same,cross-reactivity with antisera against human PTHrP and human PTH,[1],does not cross-react; also recorded: is not recognised by any of the human PTH or human PTHrP antisera
same,trabecular bone volume,[2]; [3],significant increase
same,trabecular number,[2]; [3],significant increase
same,trabecular separation,[2]; [3],without a reduction
same,trabecular thickness,[2]; [3],significant increase
same,osteoblast generation,[2]; 10 micrograms/100 grams,increased osteoblast generation
same,anabolic effect on bone,"[2]; 10 micrograms/100 grams, young growing rats",anabolic in young growing rats
same,histomorphometric markers of bone resorption,[2]; dose not specified,not significantly altered
same,osteoclast number,[2]; [4],trend for reduced osteoclast numbers but this did not reach statistical significance; also recorded: trend towards reduced osteoclast number
same,osteoblast number per unit osteoid surface,[2]; [4],significantly increased
same,osteoblast proliferation,"[2]; low dose 3 microgram/100 gram body weight/day, FIG. 9",trend towards increased osteoblast proliferation
same,osteoblast number per unit osteoid surface,[2]; low dose 3 microgram/100 gram body weight/day,significantly increased
same,bone mass / trabecular density in proximal tibiae,"[2]; young rats, s.c. daily for 30 days, 3 or 10 microgram/100 gram body weight/day, FIG. 6",increases bone mass in young rats; also recorded: apparent elevation of trabecular density
"human PTH: human parathyroid hormone, comparator peptide in rats (low or high dose); fragment length not stated there [reference compound]",fold less potent than human PTHrP or Fugu PTHrP in receptor activation,PTH-3R,20 fold
same,osteoclastogenesis,[2]; 10 microgram/100 gram,mild reduction in osteoclastogenesis
same,histomorphometric markers of bone formation (osteoblast number and surface),"[2]; dose not specified in legend, FIG. 9",significantly elevated
same,osteoblast number per unit osteoid surface,[2]; [4],significantly increased
same,histomorphometric markers of bone resorption,[2]; [4],significantly reduced
"human PTHrP(7-34): human parathyroid hormone-related protein fragment 7-34, co-incubated as inhibitor of the cAMP response [reference compound]",inhibition of the cAMP response to agonist peptides,"UMR106.01 cells; increasing concentrations co-incubated with 10 nM Fugu PTH(1-34), 1 nM human PTH(1-34), 0.5 nM Fugu PTHrP(1-34) or 0.5 nM human PTHrP(1-34), data not shown",partial inhibition of the cAMP response

# Source: patent US20070117157A1, “Parathyroid hormone-like polypeptides” (priority 2002, published 2007)
